Source: patent US9943525B2, “Composition for reducing cell senescence comprising Rho-kinase inhibitor and use thereof” (Samsung Electronics Co., Ltd., priority 2014, dated 2018)

Tests used:
[1] = system: senescent fibroblasts (after 38 cell passages); assay: DNA comet assay; type: cell-based, human; conditions: 4 weeks, vs control, p<0.01, FIG. 12
Protocol: The degrees of restoration of DNA damage in senescent cells by the Rho-kinase inhibitors were identified by a DNA comet assay. This method is performed by detecting DNA fractions cleaved by ultraviolet (UV) irradiation. This method is based on gel electrophoresis. During gel electrophoresis, damaged DNA migrates farther than normal DNA forming a tail like a comet-tail. Then, a slide was stained with SYBR Green, and the length of a tail of a DNA fraction was measured using a fluorescence microscope to identify the degree of DNA damage.
FIG. 12 is a graph displaying degrees of DNA damage in fibroblasts (after 38 cell passages) cultured in the presence of Rho-kinase inhibitors Y-27632 (5 μM), Fasudil (5 μM), and SR3677 (0.5 μM) measured by a DNA comet assay indicating the degree of DNA damage. In FIG. 12, senescent cells (after 38 cell passages) were cultured in culture media supplemented with 5 μM of Y-27632, 5 μM of FASUDIL, and 0.5 μM of SR3677 for 4 weeks in a 5% CO2 incubator at 37° C. The culture media were changed at every 4 days with new culture media supplemented with 5 μM of Y-27632, 5 μM of FASUDIL, and 0.5 μM of SR3677. Also, negative control groups were prepared in the same manner as described above, except that one negative control group was prepared with no treatment and another was treated with 0.05 (v/v) % of DMSO. Cells having undergone 17 passages and having a cell doubling time of 4 to 5 days were used as young cells. […] Thus, it was confirmed that the degree of DNA damage increases in senescent cells. In the Comet assay, the Tail Moment is defined as multiplication of a length of the tail by a total DNA fraction contained in the tail. That is, the Tail Moment is a length of the tail migrated during gel electrophoresis. As the length of the tail decreases, the degree of DNA damage decreases. […] In FIG. 12, ** indicates statistically significant (p<0.01). In FIG. 12, the “Fibroblast p17” and “Fibroblast p38” refer to fibroblasts that were subcultured for 17 passages and fibroblasts subcultured for 38 passages, respectively.

[2] = system: senescent myoblasts (11 cell passages); assay: mitochondrial membrane potential (JC-1) by flow cytometry; type: cell-based, Human; conditions: vs control, p<0.05, FIG. 16
Protocol: (§1) Myoblast cell lines (Human Skeletal Muscle Myoblasts, Lonza CC-2580 LOT:0000387550) were cultured in SkBM™-2 Basal Media (Lonza CC-3246) including an SkGM™-2 SingleQuots™ Kit (Lonza CC-3244) on plates coated with Collagen Type I (Greiner Bio One, 658950) in a 5% CO2 incubator at 37° C. Subculture was initiated when the cells were approximately 85% confluent in plates. Early subcultures were performed at a split ratio of 1:4, and later subcultures were performed at a split ratio of 1:2. When cell doubling time was 14 days, the cells were regarded as senescent myoblasts (cell passages 10 to 12).
(§2) Senescent cells were seeded on each well of a 6-well plate coated with Collagen Type I (Greiner Bio One, 657950) in a concentration of 2,000 cells/well. Senescent myoblasts (passage 11) were cultured in the presence of 5 μM of Y-27632, 5 μM of FASUDIL, and 0.5 μM of SR3677 for 4 weeks in a 5% CO2 incubator at 37° C. The culture media were changed at every 4 days with new culture media supplemented with 5 μM of Y-27632, 5 μM of FASUDIL, and 0.5 μM of SR3677. A negative control group was prepared in the same manner, except that 0.05 (v/v) % of DMSO was used.
Mitochondrial membrane potentials were measured using a MitoProbe™ JC-1 Assay kit for Flow Cytometry (Life technologies, T3168) according to manufacturer's manuals. JC-1 is accumulated in mitochondria in a potential-dependent manner, and this accumulation is identified by fluorescence emission shift from green (about 529 nm) to red (about 590 nm). As a result, mitochondrial depolarization is identified by a decrease in a red/green fluorescence ratio. The mitochondrial membrane potentials were measured by excitation at 488 nm using a FACSCaliber (Beckton Dickinson) and using a flow cytometer by using 530/30 nm and 585/42 nm band pass filters. The results were analyzed using Cell Quest 3.2 software (Beckton Dickinson).

[3] = system: senescent myoblasts (11 cell passages); assay: mitochondrial ROS (MitoSOX) by flow cytometry; type: cell-based, Human; conditions: vs control, p<0.05, FIG. 15
Protocol: as §1, §2
ROS were measured using a 0.2 μM MitoSOX (Invitrogen, M3608) according to manufacturer's manuals. Light having a wavelength of 520 nm was irradiated to the cells using a FACSCaliber (Beckton Dickinson), and light emission was measured at 580 nm. The results were analyzed using Cell Quest 3.2 software (Beckton Dickinson).

[4] = system: senescent fibroblasts (after 37 cell passages); assay: cell proliferation and colony formation, crystal violet stain; type: cell-based, human; conditions: 4 weeks; for cell proliferation and cell colony formation: vs DMSO
Protocol: Fibroblast cell lines were cultured in Dulbecco's Modified Eagle's Media (DMEM) supplemented with 10% fetal bovine serum (FBS) and 100 unit/ml of penicillin, and 100 μg/ml of streptomycin (two antibiotics are purchased from Gibro-BRL and Grand Island, N.Y.) in a 5% CO2 incubator at 37° C. The fibroblast cell lines (M11 strain) were obtained from a foreskin of a child. Subculture was initiated when the cells were approximately 85% confluent in plates. Early subcultures were performed at a split ratio of 1:4, and later subcultures were performed at a split ratio of 1:2. When cell doubling time was 14 days, the cells were regarded as senescent fibroblasts (passages 35 to 37).
In order to determine optimum concentrations of Rho-kinase inhibitors Y-27632 (Selleckchem, S1049, 50 mg 2HCl salt form), FASUDIL (Selleckchem, S1573, 500 mg HCl salt form), and SR3677 (Synkinase, SYN1083, 10 mg), the senescent fibroblasts (after 37 cell passages) were seeded on each well of a 6-well plate in a concentration of 2,000 cells/well, and the wells were treated with 1 μM, 5 μM, 10 μM, 20 μM, and 30 μM of Y-27632, 1 μM, 5 μM, 10 μM, 20 μM, and 30 μM of FASUDIL, and 0.01 μM, 0.05 μM, 0.1 μM, 0.5 μM, and 1 μM of SR3677. In addition, a negative control group was prepared in the same manner, except that dimethyl sulfoxide (DMSO) was used. The culture media supplemented with the Rho-kinase inhibitors were changed at every 4 days, and colonies were stained with a 0.05% crystal violet stain after 4 weeks.

Row | SMILES | DNA damage (Tail Moment) ([1]; 5 μM) | action potentials of mitochondria (mitochondrial membrane potential) ([2]; 5 μM) | ROS ([3]; 5 μM) | cell proliferation and cell colony formation ([4]; 5 μM, FIG. 1 B) | toxic effects on cell proliferation and cell colony formation ([4]; 10 μM, 20 μM, and 30 μM, FIG. 1 B) | DNA damage (Tail Moment) ([1]; 0.5 μM) | action potentials of mitochondria (mitochondrial membrane potential) ([2]; 0.5 μM) | ROS ([3]; 0.5 μM) | cell proliferation and cell colony formation ([4]; 0.5 μM, FIG. 1 C) | toxic effects on cell proliferation and cell colony formation ([4]; 1 μM, FIG. 1 C) | cell proliferation and cell colony formation ([4]; 5 μM, 10 μM, and 20 μM, FIG. 1 A) | toxic effects on cell proliferation and cell colony formation ([4]; 30 μM, FIG. 1 A)
1 | O=S(=O)(c1cccc2cnccc12)N1CCCNCC1 [FASUDIL, 5-(1,4-diazepane-1-sulfonyl)isoquinoline] | considerably restored | significantly increased | significantly reduced | greatest therapeutic effects | reduces cell proliferation and cell colony formation due to toxic effects | – | – | – | – | – | – | –
2 | CN(C)CCOc1cc(-c2cn[nH]c2)ccc1NC(=O)C1COc2ccccc2O1 (stereo not drawn) [SR3677] | – | – | – | – | – | considerably restored | significantly increased | significantly reduced | greatest therapeutic effects | reduces cell proliferation and cell colony formation due to toxic effects | – | –
3 | C[C@@H](N)[C@H]1CC[C@H](C(=O)Nc2ccncc2)CC1 [Y-27632, (1R,4R)-4-((R)-1-aminoethyl)-N-(pyridin-4-yl)cyclohexanecarboxamide] | considerably restored | significantly increased | significantly reduced | – | – | – | – | – | – | – | greatest therapeutic effects | reduces cell proliferation and cell colony formation due to toxic effects
